Key:
human factor XIa = biological target: T1, human factor XIa (Homo sapiens, UniProt P03951); experiment: Measurement of FXIa inhibition (fluorogenic peptide substrate Boc-Glu(OBzl)-Ala-Arg-AMC); assay type: biochemical; conditions: factor XIa from Kordia, 15 min preincubation, 30 min at 22° C., fluorescence; some as mean values from multiple determinations
T1 construct: purchased Kordia
Experimental: (§1) The factor XIa inhibition of the substances according to the invention is determined using a biochemical test system which utilizes the reaction of a peptidic factor XIa substrate to determine the enzymatic activity of human factor XIa. Here, factor XIa cleaves from the peptidic factor XIa substrate the C-terminal aminomethylcoumarin (AMC), the fluorescence of which is measured. The determinations are carried out in microtitre plates.
Test substances are dissolved in dimethyl sulfoxide and serially diluted in dimethyl sulfoxide (3000 μM to 0.0078 μM; resulting final concentrations in the test: 50 μM to 0.00013 μM). In each case 1 μl of the diluted substance solutions is placed into the wells of white microtitre plates from Greiner (384 wells). 20 μl of assay buffer (50 mM of Tris/HCl pH 7.4; 100 mM of sodium chloride; 5 mM of calcium chloride; 0.1% of bovine serum albumin) and 20 μl of factor XIa from Kordia (0.45 nM in assay buffer) are then added successively. After 15 min of incubation, the enzyme reaction is started by addition of 20 μl of the factor XIa substrate Boc-Glu(OBzl)-Ala-Arg-AMC dissolved in assay buffer (10 μM in assay buffer) from Bachem, the mixture is incubated at room temperature (22° C.) for 30 min and fluorescence is then measured (excitation: 360 nm, emission: 460 nm). The measured emissions of the test batches with test substance are compared to those of control batches without test substance (only dimethyl sulfoxide instead of test substance in dimethyl sulfoxide), and IC50 values are calculated from the concentration/activity relationships.

human plasma kallikrein = biological target: T2, human plasma kallikrein (Homo sapiens, UniProt P03952); experiment: Determination of the plasma kallikrein activity (fluorogenic peptide substrate H-Pro-Phe-Arg-AMC); assay type: biochemical; conditions: plasma kallikrein from Kordia, 15 min preincubation, 30 min at 22° C., fluorescence; some as mean values from multiple determinations
T2 construct: purchased Kordia
T2 sequence (P03952 391-638 limits assumed): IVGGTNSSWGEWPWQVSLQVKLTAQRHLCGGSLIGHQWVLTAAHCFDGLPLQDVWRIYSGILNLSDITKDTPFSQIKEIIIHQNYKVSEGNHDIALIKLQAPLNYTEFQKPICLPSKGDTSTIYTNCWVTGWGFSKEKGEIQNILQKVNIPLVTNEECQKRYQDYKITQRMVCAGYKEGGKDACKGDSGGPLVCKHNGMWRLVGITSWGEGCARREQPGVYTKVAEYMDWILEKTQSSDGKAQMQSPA
T2 sequence (P03952 20-390 partner limits assumed): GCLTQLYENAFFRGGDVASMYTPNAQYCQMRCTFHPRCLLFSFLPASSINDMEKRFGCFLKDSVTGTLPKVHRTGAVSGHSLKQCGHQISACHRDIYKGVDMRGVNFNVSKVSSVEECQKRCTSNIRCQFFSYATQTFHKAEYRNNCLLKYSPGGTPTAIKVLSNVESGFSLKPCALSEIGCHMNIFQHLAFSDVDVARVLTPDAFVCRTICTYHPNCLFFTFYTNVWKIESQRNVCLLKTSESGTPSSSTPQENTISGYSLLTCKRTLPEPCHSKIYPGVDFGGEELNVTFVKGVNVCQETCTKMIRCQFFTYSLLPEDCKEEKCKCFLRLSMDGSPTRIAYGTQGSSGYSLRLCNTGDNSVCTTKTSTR
Experimental: as §1, with “To determine the plasma kallikrein” for “The factor XIa”, “invention,” for “invention is determined using”, “system is used” for “system”, “plasma kallikrein” for “factor XIa”, “plasma kallikrein.” for “factor XIa.”
Test substances are dissolved in dimethyl sulfoxide and serially diluted in dimethyl sulfoxide (3000 μM to 0.0078 μM; resulting final concentrations in the test: 50 μM to 0.00013 μM). In each case 1 μl of the diluted substance solutions is placed into the wells of white microtitre plates from Greiner (384 wells). 20 μl of assay buffer (50 mM Tris/HCl pH 7.4; 100 mM sodium chloride solution; 5 mM of calcium chloride solution; 0.1% of bovine serum albumin) and 20 μl of plasma kallikrein from Kordia (0.6 nM in assay buffer) are then added successively. After 15 min of incubation, the enzyme reaction is started by addition of 20 μl of the substrate H-Pro-Phe-Arg-AMC dissolved in assay buffer (10 μM in assay buffer) from Bachem, the mixture is incubated at room temperature (22° C.) for 30 min and fluorescence is then measured (excitation: 360 nm, emission: 460 nm). The measured emissions of the test batches with test substance are compared to those of control batches without test substance (only dimethyl sulfoxide instead of test substance in dimethyl sulfoxide), and IC50 values are calculated from the concentration/activity relationships. Activity data from this test are listed in Table B below (some as mean values from multiple independent individual determinations): […]

T1 sequence (P03951 388-625 limits assumed): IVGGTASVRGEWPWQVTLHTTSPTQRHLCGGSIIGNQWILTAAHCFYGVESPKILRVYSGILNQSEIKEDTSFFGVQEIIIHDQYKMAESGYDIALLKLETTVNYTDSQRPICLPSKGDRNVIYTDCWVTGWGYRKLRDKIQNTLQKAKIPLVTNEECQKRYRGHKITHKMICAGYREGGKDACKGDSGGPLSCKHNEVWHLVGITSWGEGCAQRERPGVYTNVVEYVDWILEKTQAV
T1 sequence (P03951 19-387 partner limits assumed): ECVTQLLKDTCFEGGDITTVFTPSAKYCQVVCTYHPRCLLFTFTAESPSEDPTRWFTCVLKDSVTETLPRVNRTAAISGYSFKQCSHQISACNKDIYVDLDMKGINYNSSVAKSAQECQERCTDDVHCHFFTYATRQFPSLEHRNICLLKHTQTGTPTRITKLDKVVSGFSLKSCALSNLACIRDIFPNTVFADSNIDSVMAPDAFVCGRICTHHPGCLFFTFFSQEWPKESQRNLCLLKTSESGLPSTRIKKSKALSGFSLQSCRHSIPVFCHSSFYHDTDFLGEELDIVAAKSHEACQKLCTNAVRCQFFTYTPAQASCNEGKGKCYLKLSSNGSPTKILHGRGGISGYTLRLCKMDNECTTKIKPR

| Structure (SMILES) | IC50 (human factor XIa) [nM] | IC50 (human plasma kallikrein) [nM] |
| --- | --- | --- |
| NC(=O)c1ccc(NC(=O)C(C[C@@H]2CCCCO2)n2cc3c(cc2=O)-c2cc(Cl)ccc2CC(C(F)(F)F)OC3)cc1F (mixture of isomers) [Example 50, 4-({2-[11-Chloro-2-oxo-7-(trifluoromethyl)-7,8-dihydro-2H-[3]benzoxocino[5,6-c]pyridin-3(5H)-yl]-3-[(2S)-tetrahydro-2H-pyran-2-yl]propanoyl}amino)-2-fluorobenzamide] | 14 | 1100 |
| NC(=O)c1ccc(NC(=O)C(C[C@@H]2CCCCO2)n2cc3c(cc2=O)-c2cc(Cl)ccc2CC(C(F)(F)F)OC3)cn1 (mixture of isomers) [Example 52, 5-({2-[11-Chloro-2-oxo-7-(trifluoromethyl)-7,8-dihydro-2H-[3]benzoxocino[5,6-c]pyridin-3(5H)-yl]-3-[(2S)-tetrahydro-2H-pyran-2-yl]propanoyl}amino)pyridine-2-carboxamide] | 6.5 | 790 |
| NC(=O)c1ccc(NC(=O)C(C[C@@H]2CCCCO2)n2cc3c(cc2=O)-c2cc(Cl)ccc2CC(C(F)(F)F)OC3)cc1 (mixture of isomers) [Example 54, 4-({2-[11-Chloro-2-oxo-7-(trifluoromethyl)-7,8-dihydro-2H-[3]benzoxocino[5,6-c]pyridin-3(5H)-yl]-3-[(2S)-tetrahydro-2H-pyran-2-yl]propanoyl}amino)benzamide] | 2.8 | 400 |
| NC(=O)c1ccc(NC(=O)C(C[C@@H]2COCCO2)n2cc3c(cc2=O)-c2cc(Cl)ccc2CC(C(F)(F)F)OC3)cc1F (mixture of isomers) [Example 56, 4-({2-[11-Chloro-2-oxo-7-(trifluoromethyl)-7,8-dihydro-2H-[3]benzoxocino[5,6-c]pyridin-3(5H)-yl]-3-[(2R)-1,4-dioxan-2-yl]propanoyl}amino)-2-fluorobenzamide] | 7.6 | 740 |
| NC(=O)c1ccc(NC(=O)C(C[C@@H]2COCCO2)n2cc3c(cc2=O)-c2cc(Cl)ccc2CC(C(F)(F)F)OC3)cc1 (mixture of isomers) [Example 58, 4-({2-[11-Chloro-2-oxo-7-(trifluoromethyl)-7,8-dihydro-2H-[3]benzoxocino[5,6-c]pyridin-3(5H)-yl]-3-[(2R)-1,4-dioxan-2-yl]propanoyl}amino)benzamide] | 2.1 | 230 |
| COCCC(C(=O)Nc1ccc(C(N)=O)c(F)c1)n1cc2c(cc1=O)-c1cc(Cl)ccc1CC(C(F)(F)F)OC2 (mixture of isomers) [Example 60, 4-({2-[11-Chloro-2-oxo-7-(trifluoromethyl)-7,8-dihydro-2H-[3]benzoxocino[5,6-c]pyridin-3(5H)-yl]-4-methoxybutanoyl}amino)-2-fluorobenzamide] | 26 | 780 |
| COCCC(C(=O)Nc1ccc(C(N)=O)cc1)n1cc2c(cc1=O)-c1cc(Cl)ccc1CC(C(F)(F)F)OC2 (mixture of isomers) [Example 62, 4-({2-[11-Chloro-2-oxo-7-(trifluoromethyl)-7,8-dihydro-2H-[3]benzoxocino[5,6-c]pyridin-3(5H)-yl]-4-methoxybutanoyl}amino)benzamide] | 8.1 | 420 |
| COCCC(C(=O)Nc1ccn2ncnc2c1)n1cc2c(cc1=O)-c1cc(Cl)ccc1CC(C(F)(F)F)OC2 (mixture of isomers) [Example 64, 2-[11-Chloro-2-oxo-7-(trifluoromethyl)-7,8-dihydro-2H-[3]benzoxocino[5,6-c]pyridin-3(5H)-yl]-4-methoxy-N-([1,2,4]triazolo[1,5-a]pyridin-7-yl)butanamide] | 42 | 580 |
| CO[C@@H](C)CC(C(=O)Nc1ccc(C(N)=O)cc1)n1cc2c(cc1=O)-c1cc(Cl)ccc1C[C@@H](C(F)(F)F)OC2 (mixture of isomers) [Example 66, 4-({(4S)-2-[(7S)-11-Chloro-2-oxo-7-(trifluoromethyl)-7,8-dihydro-2H-[3]benzoxocino[5,6-c]pyridin-3(5H)-yl]-4-methoxypentanoyl}amino)benzamide] | 5.1 | 320 |
| CC1Cc2ccc(Cl)cc2-c2cc(=O)n(C(C[C@@H]3CCCCO3)C(=O)Nc3ccc(C(N)=O)c(F)c3)cc2CO1 (single isomer, unassigned) [Example 1] | 11 | 630 |
| C[C@@H]1Cc2ccc(Cl)cc2-c2cc(=O)n([C@@H](C[C@@H]3CCCCO3)C(=O)Nc3ccc(C(N)=O)c(F)c3)cc2CO1 (single isomer, unassigned) [Example 2] | 5.5 | 320 |
| C[C@@H]1Cc2ccc(Cl)cc2-c2cc(=O)n([C@@H](C[C@@H]3CCCCO3)C(=O)Nc3ccc(C(N)=O)nc3)cc2CO1 (single isomer, unassigned) [Example 4] | 2.4 | 420 |
| C[C@@H]1Cc2ccc(Cl)cc2-c2cc(=O)n([C@@H](C[C@@H]3CCCCO3)C(=O)Nc3ccc(C(N)=O)cc3)cc2CO1 (single isomer, unassigned) [Example 6] | 1.4 | 140 |
| C[C@@H]1Cc2ccc(Cl)cc2-c2cc(=O)n([C@@H](C[C@@H]3COCCO3)C(=O)Nc3ccc(C(N)=O)c(F)c3)cc2CO1 (single isomer, unassigned) [Example 8] | 6.6 | 320 |
| C[C@@H]1Cc2ccc(Cl)cc2-c2cc(=O)n([C@@H](C[C@@H]3COCCO3)C(=O)Nc3ccc(C(N)=O)cc3)cc2CO1 (single isomer, unassigned) [Example 10] | 1.2 | 87 |
| C[C@@H]1Cc2ccc(Cl)cc2-c2cc(=O)n([C@@H](C[C@@H]3COCCO3)C(=O)Nc3ccc4nn(C)nc4c3)cc2CO1 (single isomer, unassigned) [Example 12] | 3.3 | 42 |
| CO[C@@H](C)C[C@@H](C(=O)Nc1ccc(C(N)=O)cc1)n1cc2c(cc1=O)-c1cc(Cl)ccc1C[C@@H](C)OC2 (single isomer, unassigned) [Example 13] | 4.6 | 205 |
| CO[C@H](C[C@@H](C(=O)Nc1ccc(C(N)=O)cc1)n1cc2c(cc1=O)-c1cc(Cl)ccc1C[C@@H](C)OC2)C1CC1 (single isomer, unassigned) [Example 14] | 3.9 | 220 |
| CO[C@H](C[C@@H](C(=O)Nc1ccc(C(N)=O)cc1)n1cc2c(cc1=O)-c1cc(Cl)ccc1C[C@@H](C)OC2)C(F)F (single isomer, unassigned) [Example 15] | 3.4 | 140 |
| C[C@@H]1Cc2ccc(Cl)cc2-c2cc(=O)n([C@@H](CCOC(F)F)C(=O)Nc3ccc(C(N)=O)cc3)cc2CO1 (single isomer, unassigned) [Example 17] | 2 | 72 |
| C[C@@H]1Cc2ccc(Cl)cc2-c2cc(=O)n([C@@H](C[C@H](C)OC(F)F)C(=O)Nc3ccc(C(N)=O)cc3)cc2CO1 (single isomer, unassigned) [Example 19] | 3.6 | 110 |
| CC(C)OCC[C@@H](C(=O)Nc1ccc(C(N)=O)cc1)n1cc2c(cc1=O)-c1cc(Cl)ccc1C[C@@H](C)OC2 (single isomer, unassigned) [Example 20] | 6.6 | 93 |
| C[C@@H]1Cc2ccc(Cl)cc2-c2cc(=O)n([C@@H](CCOC(C)(C)C)C(=O)Nc3ccc(C(N)=O)c(F)c3)cc2CO1 (single isomer, unassigned) [Example 22] | 19 | 280 |
| C[C@@H]1Cc2ccc(Cl)cc2-c2cc(=O)n([C@@H](CCOC(C)(C)C)C(=O)Nc3ccc(C(N)=O)cc3)cc2CO1 (single isomer, unassigned) [Example 24] | 5.4 | 110 |
| C[C@@H]1Cc2ccc(Cl)cc2-c2cc(=O)n([C@@H](CCOC(C)(C)C)C(=O)Nc3ccn4ncnc4c3)cc2CO1 (single isomer, unassigned) [Example 26] | 28 | 170 |
